Results as given in US6117864A, “Methods employing stable preparation containing azelastine hydrochloride” (ASTA Medica Aktiengesellschaft, priority 1992, dated 2000).
Where a name gives a salt, the structure may show the parent alone. Read-outs that look alike come from different tables or passages of the source. Each block holds one molecule with its values, some of them ahead of it.

Key:
[1] = Azelastine hydrate production-suppressing effect of each of the additives (azelastine hydrochloride solutions, pH 8); type: physicochemical; set-up: key to Effect Against Production of Azelastine Hydrates: absolutely no hydrate formation; .largecircle.: absolutely no hydrate formation; Δ: hydrate formation decreased compared to the produced water; X: no hydrate production-suppressing effect; conditions: for Effect Against Production of Azelastine Hydrates: 0.3 g azelastine hydrochloride in 100 ml, pH 8
Procedure: The azelastine hydrate production-suppressing effect was tested for each of the additives in azelastine hydro-chloride solutions. Each of the additives were added to 0.3 g of azelastine hydrochloride, the pH was adjusted to 8 with sodium hydroxide, and purified water was added to a total volume of 100 ml to determine whether or not azelastine hydrate crystals were produced. The identification of azelastine hydrate was carried out by filtering off the precipitates produced in the test solutions, drying them at room temperature, measuring thermal analysis (TG-DTA) (FIG. 1) and IR spectrum (azelastine hydrochloride reference standard: FIG. 2; azelastine hydrate: FIG. 3), and then comparing them to the standard.
Cases in which there was absolutely no hydrate formation are represented by [o], cases in which hydrate formation decreased compared to the produced water are represented by [Δ], and cases in which there was no hydrate production-suppressing effect are represented by [X].

[2] = cited from earlier work
[3] = cited from earlier work; for percutaneous absorbability: technique of SHO 63-278108
[4] = cited from earlier work; remark: listed apart in the source
[5] = dependence on pH; cited from earlier work

suppression of the production of azelastine hydrate (in words) [1]: not exhibited
Effect Against Production of Azelastine Hydrates ([1]; amount added 0.5%): X
SMILES: CC(=O)O [Acetic Acid, reference compound]

SMILES: CCCCCCCCCCCCCCCCCCCCCC(=O)O [Behenic Acid]
Effect Against Production of Azelastine Hydrates ([1]; amount added 0.5%): .largecircle.

suppression of the production of azelastine hydrate (in words) [1]: not exhibited
Effect Against Production of Azelastine Hydrates ([1]; amount added 0.5%): X
SMILES: CCCC(=O)O [Butyric Acid, reference compound]

Effect Against Production of Azelastine Hydrates ([1]; amount added 0.5%): .largecircle.
SMILES: CCCCCCCCCC(=O)O [Capric Acid]

SMILES: CCCCCC(=O)O [Caproic Acid, reference compound]
Effect Against Production of Azelastine Hydrates ([1]; amount added 0.5%): X

Effect Against Production of Azelastine Hydrates ([1]; amount added 0.5%): Δ
SMILES: CCCCCCCC(=O)O [Caprylic Acid]

SMILES: CCCCCCCC/C=C\CCCCCCCCCCCC(=O)O [Erucid Acid]
Effect Against Production of Azelastine Hydrates ([1]; amount added 0.5%): .largecircle.

Effect Against Production of Azelastine Hydrates ([1]; amount added 30%): X
SMILES: CCO [Ethanol, reference compound]

SMILES: CC(C)CCCCCCCCCCCCCCC(=O)O [Isostearic Acid]
Effect Against Production of Azelastine Hydrates ([1]; amount added 0.5%): .largecircle.

SMILES: CCCCCCCCCCCC(=O)O [Lauric Acid]
Effect Against Production of Azelastine Hydrates ([1]; amount added 0.5%): .largecircle.

Effect Against Production of Azelastine Hydrates ([1]; amount added 0.5%): .largecircle.
SMILES: CC/C=C\C/C=C\C/C=C\CCCCCCCC(=O)O [Linolenic Acid]

Effect Against Production of Azelastine Hydrates ([1]; amount added 0.5%): .largecircle.
SMILES: CCCCC/C=C\C/C=C\CCCCCCCC(=O)O [Linolic Acid]

SMILES: CCCCCCCCCCCCCC(=O)O [Myristic Acid]
Effect Against Production of Azelastine Hydrates ([1]; amount added 0.1%): Δ
Effect Against Production of Azelastine Hydrates ([1]; amount added 0.3%): .largecircle.
Effect Against Production of Azelastine Hydrates ([1]; amount added 0.5%): .largecircle.

SMILES: CCCCCCCC/C=C\CCCCCCCC(=O)O [Oleic Acid]
Effect Against Production of Azelastine Hydrates ([1]; amount added 0.1%): Δ
Effect Against Production of Azelastine Hydrates ([1]; amount added 0.3%): .largecircle.
Effect Against Production of Azelastine Hydrates ([1]; amount added 1% (1 or 1.0)): .largecircle.

Effect Against Production of Azelastine Hydrates ([1]; amount added 0.5%): .largecircle.
SMILES: CCCCCCCCCCCCCCCC(=O)O [Palmitic Acid]

Effect Against Production of Azelastine Hydrates ([1]; amount added 0.5%): .largecircle.
SMILES: CCCCCC/C=C\CCCCCCCC(=O)O [Palmitoleic Acid]

suppression of the production of azelastine hydrate (in words) [1]: not exhibited
Effect Against Production of Azelastine Hydrates ([1]; amount added 0.3%): X
SMILES: CCC(=O)O [Propionic Acid, reference compound]

SMILES: CC(O)CO (stereo not drawn) [Propylene glycol, reference compound]
Effect Against Production of Azelastine Hydrates ([1]; amount added 30%): X

SMILES: CCCCCCCCCCCCCCCCCC(=O)O [Stearic Acid]
Effect Against Production of Azelastine Hydrates ([1]; amount added 0.5%): .largecircle.

SMILES: CN1CCCC(n2nc(Cc3ccc(Cl)cc3)c3ccccc3c2=O)CC1 (stereo not drawn) [azelastine hydrate]
solubility ([2]; in aqueous preparation, crystalline hydrates of non-dissociation type molecules): poor solubility

SMILES: CN1CCCC(n2nc(Cc3ccc(Cl)cc3)c3ccccc3c2=O)CC1 (stereo not drawn) [azelastine hydrochloride]
increase in absorbability ([3]; technique of SHO 61-254532): no increase in absorbability was observed
percutaneous absorbability ([3]; amount of azelastine hydrochloride high compared to the base): marked improvement
percutaneous absorbability ([3]; amount of azelastine hydrochloride low compared to the base): poor percutaneous absorbability
solubility in solvents ([2]; solvents which may be used in pharmaceutical compositions): low solubility

SMILES: CN1CCCC(n2nc(Cc3ccc(Cl)cc3)c3ccccc3c2=O)CC1 (stereo not drawn) [azelastine]
acid dissociation constant (pKa) [4]: approximately 9.5

SMILES: CN1[C@@H]2C[C@@H](OC(=O)[C@H](CO)c3ccccc3)C[C@H]1[C@@H]1O[C@@H]12 [scopolamine]
percutaneous penetration speed [5]: in direct proportion to the pH
